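Cultured in 96-well plates, cells were exposed to test compound for 48 hours across five concentrations. At the GI50, growth is halved.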 Calls of active or inactive are those of the source. No stated cut-off is given here; in the data, active = GI50 up to about 1.1 µM and inactive = higher.
Tests used:
Assay in all cases: NCI-60 cell line screen, 48 h
[1] = system: ACHN
[2] = system: CAKI-1
[3] = system: EKVX
[4] = system: HCT-116
[5] = system: HL-60
[6] = system: LOX IMVI
[7] = system: MDA-N
[8] = system: NCI-H522
[9] = system: NCI/ADR-RES
[10] = system: OVCAR-5
[11] = system: RPMI-8226
[12] = system: RXF 393
[13] = system: SF-295
[14] = system: SK-OV-3
[15] = system: SN12C
[16] = system: U-251
[17] = system: A498
[18] = system: Hs-578T
[19] = system: SK-MEL-28

SMILES	GI50 [1]	GI50 [2]	GI50 [3]	GI50 [4]	GI50 [5]	GI50 [6]	GI50 [7]	GI50 [8]	GI50 [9]	GI50 [10]	GI50 [11]	GI50 [12]	GI50 [13]	GI50 [14]	GI50 [15]	GI50 [16]	GI50 [17]	GI50 [18]	GI50 [19]
O=C1CC2(CCNCC2)C(=O)N1N1CCCC1	> 100 µM (inactive)	> 100 µM (inactive)	> 100 µM (inactive)	> 100 µM (inactive)	> 100 µM (inactive)	> 100 µM (inactive)	> 100 µM (inactive)	> 100 µM (inactive)	> 100 µM (inactive)	> 100 µM (inactive)	> 100 µM (inactive)	> 100 µM (inactive)	> 100 µM (inactive)	> 100 µM (inactive)	> 100 µM (inactive)	> 100 µM (inactive)			
CC1=CC[C@](C)(O)[C@@]2(C)CC[C@H]3C(=C(C)C)C(=O)C[C@]3(C)C[C@H]12	38.7 µM (inactive)	16 µM (inactive)	> 50 µM (inactive)	14.1 µM (inactive)	6.55 µM (inactive)	7.93 µM (inactive)		10.4 µM (inactive)	16.5 µM (inactive)	> 50 µM (inactive)	11.2 µM (inactive)	30 µM (inactive)	> 50 µM (inactive)	> 50 µM (inactive)	34.8 µM (inactive)	> 50 µM (inactive)	> 50 µM (inactive)	38.2 µM (inactive)	> 50 µM (inactive)
O=C(O)C(=O)Cc1ccc2c(c1)OCO2	> 100 µM (inactive)	> 100 µM (inactive)	> 100 µM (inactive)	> 100 µM (inactive)	> 100 µM (inactive)	> 100 µM (inactive)	> 100 µM (inactive)		> 100 µM (inactive)	> 100 µM (inactive)	> 100 µM (inactive)	> 100 µM (inactive)	> 100 µM (inactive)	> 100 µM (inactive)	> 100 µM (inactive)	> 100 µM (inactive)	> 100 µM (inactive)		> 100 µM (inactive)
Fc1ccc(C2(CCCN3CCc4[nH]c5cc(F)ccc5c4C3)OCCO2)cc1	11.4 µM (inactive)		15.3 µM (inactive)	11.5 µM (inactive)	10.5 µM (inactive)	12.6 µM (inactive)			20.7 µM (inactive)	2.89 µM (inactive)	10.7 µM (inactive)	13.5 µM (inactive)	13.9 µM (inactive)	13.8 µM (inactive)	16.7 µM (inactive)	11.9 µM (inactive)	14.3 µM (inactive)	3.92 µM (inactive)	12.6 µM (inactive)
CCCCCCCC/C=C/CCCCCCCC1CC(O)C(=O)O1 (stereo unspecified)	28.4 µM (inactive)		50.8 µM (inactive)	41.1 µM (inactive)	35.3 µM (inactive)	78.3 µM (inactive)	59.7 µM (inactive)		54.1 µM (inactive)	> 100 µM (inactive)	25.8 µM (inactive)		30.7 µM (inactive)	79.8 µM (inactive)	> 10 µM (inactive)	62.7 µM (inactive)	28.4 µM (inactive)		72.3 µM (inactive)
CC(=O)NC1C(OCc2ccccc2)OC(CO)C(O)C1OCC(=O)NC(C)C(=O)NC(CCC(=O)OCCNC(=O)c1cccc2cc3ccccc3nc12)C(N)=O (stereo unspecified)	12.3 µM (inactive)	14.8 µM (inactive)	24.9 µM (inactive)	10.4 µM (inactive)	22.2 µM (inactive)	11.2 µM (inactive)	26.4 µM (inactive)	16.8 µM (inactive)	21.6 µM (inactive)	22.1 µM (inactive)	1.33 µM (inactive)	16.5 µM (inactive)	21.4 µM (inactive)	21.6 µM (inactive)	22.3 µM (inactive)	18.4 µM (inactive)			19.4 µM (inactive)
O=CC[C@H]1C(=O)C[C@@H]2CCC[C@@H]21	> 100 µM (inactive)	> 100 µM (inactive)	> 100 µM (inactive)	37.2 µM (inactive)	32.1 µM (inactive)			> 100 µM (inactive)		> 100 µM (inactive)	42.4 µM (inactive)	29.6 µM (inactive)	> 100 µM (inactive)	> 100 µM (inactive)	92.3 µM (inactive)	98.6 µM (inactive)	> 100 µM (inactive)		> 100 µM (inactive)
Oc1nc2cc3nc(O)c(O)nc3cc2nc1O	> 100 µM (inactive)	> 100 µM (inactive)	> 100 µM (inactive)	> 100 µM (inactive)	> 100 µM (inactive)	> 100 µM (inactive)		> 100 µM (inactive)	> 100 µM (inactive)	> 100 µM (inactive)	> 100 µM (inactive)	> 100 µM (inactive)	> 100 µM (inactive)	> 100 µM (inactive)	> 100 µM (inactive)	> 100 µM (inactive)	> 100 µM (inactive)	> 100 µM (inactive)	> 100 µM (inactive)
CCCCCCCCCCCCCC(=O)O.O=CC(O)C(O)C(OC1OC(CO)C(O)C(O)C1O)C(O)CO (stereo unspecified)	> 100 µM (inactive)	71.6 µM (inactive)		> 100 µM (inactive)	18.7 µM (inactive)			57.4 µM (inactive)	> 100 µM (inactive)	> 100 µM (inactive)	19.8 µM (inactive)	> 100 µM (inactive)	73.1 µM (inactive)	> 100 µM (inactive)	80.4 µM (inactive)	35 µM (inactive)	> 100 µM (inactive)	> 100 µM (inactive)	> 100 µM (inactive)
c1cnc2c(c1)-n1cccc1C1(CCSCC1)NN2	> 100 µM (inactive)	88.5 µM (inactive)	> 100 µM (inactive)	> 100 µM (inactive)	39.6 µM (inactive)	68.7 µM (inactive)		95.3 µM (inactive)		> 100 µM (inactive)	> 100 µM (inactive)		> 100 µM (inactive)		> 100 µM (inactive)				> 100 µM (inactive)
COc1c(C)c(C/C=C(\C)CCCCO)c(OC)c(OC)c1OC	> 100 µM (inactive)	0.112 µM (active)	> 100 µM (inactive)	> 100 µM (inactive)		25.5 µM (inactive)	> 100 µM (inactive)	> 100 µM (inactive)	> 100 µM (inactive)	> 100 µM (inactive)	10.3 µM (inactive)	> 100 µM (inactive)	48.6 µM (inactive)	> 100 µM (inactive)	28.7 µM (inactive)	> 100 µM (inactive)		> 100 µM (inactive)	
CC(=O)OCC12CN(C#N)C3C4COC(CC41)C1(C(=O)N(C)c4ccccc41)C32 (stereo unspecified)	14.3 µM (inactive)	17.3 µM (inactive)	20.7 µM (inactive)	19.3 µM (inactive)	11.2 µM (inactive)	20.6 µM (inactive)		12.1 µM (inactive)	22.2 µM (inactive)	33.4 µM (inactive)	9.73 µM (inactive)	12.1 µM (inactive)	49.1 µM (inactive)	34.4 µM (inactive)	20.3 µM (inactive)	56.1 µM (inactive)		18.2 µM (inactive)	19.2 µM (inactive)
Cc1n[nH]c(=O)n1/N=C/c1ccco1	> 100 µM (inactive)	> 100 µM (inactive)	> 100 µM (inactive)	> 100 µM (inactive)					> 100 µM (inactive)	> 100 µM (inactive)	> 100 µM (inactive)	> 100 µM (inactive)	> 100 µM (inactive)	> 100 µM (inactive)	> 100 µM (inactive)	> 100 µM (inactive)	> 100 µM (inactive)	> 100 µM (inactive)	> 100 µM (inactive)
COc1ccc(C2c3cc4c(cc3OC(N3CCCCC3)C2C)OCO4)cc1 (stereo unspecified)	41.2 µM (inactive)	36.6 µM (inactive)	> 100 µM (inactive)	> 100 µM (inactive)		> 100 µM (inactive)	> 100 µM (inactive)	83.6 µM (inactive)	> 100 µM (inactive)	> 100 µM (inactive)	> 100 µM (inactive)		54.6 µM (inactive)		> 100 µM (inactive)			33.6 µM (inactive)	> 100 µM (inactive)
Cc1cccc(Br)[n+]1[O-]	> 100 µM (inactive)	> 100 µM (inactive)	> 100 µM (inactive)	> 100 µM (inactive)		> 100 µM (inactive)		> 100 µM (inactive)	> 100 µM (inactive)	> 100 µM (inactive)	> 100 µM (inactive)	> 100 µM (inactive)	> 100 µM (inactive)	> 100 µM (inactive)	97.1 µM (inactive)	> 100 µM (inactive)		> 100 µM (inactive)	> 100 µM (inactive)
CC1(C)OCC(COC(=O)C=[N+]=[N-])O1 (stereo unspecified)	> 100 µM (inactive)	> 100 µM (inactive)	> 100 µM (inactive)	> 100 µM (inactive)	> 100 µM (inactive)	> 100 µM (inactive)	> 100 µM (inactive)	> 100 µM (inactive)		> 100 µM (inactive)	> 100 µM (inactive)	> 100 µM (inactive)	> 100 µM (inactive)	> 100 µM (inactive)	> 100 µM (inactive)	> 100 µM (inactive)	> 100 µM (inactive)		> 100 µM (inactive)
O=C(O)c1nc2ccc(C(F)(F)F)cc2nc1NCc1ccc(F)cc1	27.2 µM (inactive)	37.8 µM (inactive)	25.6 µM (inactive)	15.9 µM (inactive)		15.6 µM (inactive)	28 µM (inactive)		35.5 µM (inactive)	22.4 µM (inactive)	21 µM (inactive)	> 100 µM (inactive)	23.5 µM (inactive)	31.7 µM (inactive)	17.5 µM (inactive)	16.7 µM (inactive)	23.7 µM (inactive)		40.8 µM (inactive)

From ChEMBL document CHEMBL1201862, “PubChem BioAssay data set” (2004)
